Among the data in ChEMBL document CHEMBL1641487, “Aspergilones A and B, two benzylazaphilones with an unprecedented carbon skeleton from the gorgonian-derived fungus Aspergillus sp” (Bioorg Med Chem Lett, 2011) are IC50 and EC50 values, retold here.

The subject of one assay is A549. Briefly: Cytotoxicity against human A549 cells. The format is functional, cell-based.
Another assay relates to MCF7. Nature of the assay: Cytotoxicity against human MCF7 cells. It counts as functional, cell-based.
The next assay has as its system HL-60. Briefly: Cytotoxicity against human HL60 cells. The format is functional, cell-based.
Another assay deals with Amphibalanus amphitrite. Briefly: Antifouling activity against Balanus amphitrite assessed as larval settlement barnacle. It counts as functional, organism-based.

Molecules are shown by their SMILES. Converted amounts (≈) assume the structure as drawn.

Take `CC1=C2C(=CO[C@@H](C)[C@@H]2C)C(=O)C(Cc2ccccc2)(Cc2ccccc2)C1=O` [ASPERGILONE A]: the IC50 (usually the point on the concentration scale where inhibition reaches its midpoint) in the assay on A549 was found to be 37 mg/L (≈ 95.7 µM); in the assay with MCF7, 25 mg/L (≈ 64.7 µM); with HL-60, 3.2 mg/L (≈ 8.28 µM). For the same compound, the EC50 (in general, the concentration giving half of the maximal effect) with Amphibalanus amphitrite worked out at 25 mg/L (≈ 64.7 µM).
`CC1=C2C(=CO[C@@H](C)[C@@H]2C)C(=O)[C@@](Cc2ccccc2)(C[C@]2(Cc3ccccc3)C(=O)C3=CO[C@@H](C)[C@H](C)C3=C(C)C2=O)C1=O` [ASPERGILONE B]: the IC50 in the assay with A549, in the assay on MCF7 and in the assay with HL-60 was > 50 mg/L each time.
